Results on 28 compounds are retold here after patent US5723165A, “Aspartyldipeptide derivatives and sweetener compositions containing the same” (Ajinomoto Co., Inc., priority 1994, dated 1998).

Series [1] in a line: Sensory evaluation of sweetness potency relative to sugar. The conditions noted are these: for Sweetness Potency: Table 1, based on an aqueous solution of 4% sucrose having a sweetness potency of 1 (one); for sweetness potency value: sensory evaluation, running text.
Another series relates to ICR male mice. The conditions noted are these: oral administration of 2.0 g/kg once.
Series [2] is described as follows: Stability (survival rate) in acidic aqueous solution by HPLC. The conditions noted are these: pH 3, 80° C., 7 hours, comparative compound = α-L-aspartyl-D-α-aminobutyric acid (S)-α-ethylbenzylamide.
Method: With respect to stability in an acidic aqueous solution, the percentage (survival rate) of the compound still surviving in an acidic aqueous solution having a pH of 3 at 80° C. for 7 hours by HPLC was measured.

With `COC[C@H](NC(=O)[C@H](NC(=O)[C@@H](N)CC(=O)O)c1ccccc1)c1ccccc1` [Example 12, α-L-aspartyl-D-phenylglycine (R)-α-methoxymethylbenzylamide], in series [1], the “Sweetness Potency” value came to 500 and the sweetness potency value is on record as 500 times that of sugar.

For the compound `CC[C@H](NC(=O)C(C)(CC)NC(=O)[C@@H](N)CC(=O)O)c1ccccc1` (mixture of isomers) [Example 10, α-L-aspartyl-DL-isovaline (S)-α-ethylbenzylamide], in series [1], the “Sweetness Potency” value is recorded as 100 and the sweetness potency value is 100 times that of sugar.

On to `COC[C@H](NC(=O)[C@H](NC(=O)[C@@H](N)CC(=O)O)[C@H](C)O)c1ccccc1` [Example 2, α-L-aspartyl-D-threonine (R)-α-methoxymethylbenzylamide], for which, in series [1], the “Sweetness Potency” value is recorded as 500 and the sweetness potency value is 500 times that of sugar.

For `CC[C@@H](C)[C@@H](NC(=O)[C@@H](N)CC(=O)O)C(=O)N[C@@H](COC)c1ccccc1` [Example 17, α-L-aspartyl-D-isoleucine (R)-α-methoxymethylbenzylamide], in series [1], the “Sweetness Potency” value is recorded as 500 and the sweetness potency value is reported as 500 times that of sugar.

In the case of `CCC(NC(=O)C(CC(C)C)NC(=O)C(N)CC(=O)O)c1ccccc1` [D-Leu (S) Et Ph], the “Sweetness Potency” value in series [1] is 100.

Turning to `CC[C@H](NC(=O)C(NC(=O)[C@@H](N)CC(=O)O)c1ccco1)c1ccccc1` (mixture of isomers) [Example 4, α-L-aspartyl-DL-furylglycine (S)-α-ethylbenzylamide], in series [1], the “Sweetness Potency” value turned out to be 1200 and the sweetness potency value is recorded as 1200 times that of sugar. Also, the sweetness potency value entry in series [1] (listed as α-L-aspartyl-DL-furylglycine(S)-α-ethylbenzylamide) was “about 1200 times that of sugar”.

As to `CC[C@H](NC(=O)C(NC(=O)[C@@H](N)CC(=O)O)c1ccco1)c1ccccc1` (mixture of isomers), in the series on ICR male mice, the toxicity entry is “no problematic toxicity”.

Regarding `CC[C@H](NC(=O)[C@H](NC(=O)[C@@H](N)CC(=O)O)[C@H](C)O)c1ccccc1` [Example 1, α-L-aspartyl-D-threonine (S)-α-ethylbenzylamide], in series [1], the “Sweetness Potency” value is 1300 and the sweetness potency value is recorded as 1300 times that of sugar. Also, the sweetness potency value entry in series [1] (listed as α-L-aspartyl-D-threonine(S)-α-ethylbenzylamide) is recorded as “about 1300 times that of sugar”. In addition, the toxicity entry with ICR male mice was “no problematic toxicity”.

As to `CC[C@H](NC(=O)C1(NC(=O)[C@@H](N)CC(=O)O)CCCC1)c1ccccc1` [Example 6, α-L-aspartyl-α-aminocyclopentanecarboxylic acid (S)-α-ethylbenzylamide], in series [1], the “Sweetness Potency” value was determined as 1000 and the sweetness potency value is recorded as 1000 times that of sugar. In series [2], the “stability (survival rate in an acidic aqueous solution) relative to comparative compound” value is “about 10 times that of the comparative”.

With `COC[C@H](NC(=O)[C@H](NC(=O)[C@@H](N)CC(=O)O)C(C)C)c1ccccc1` [α-L-aspartyl-D-valine (R)-α-methoxymethylbenzylamide], the sweetness potency value result in series [1] is “about 1300 times that of sugar”. In the series with ICR male mice, the toxicity entry is “no problematic toxicity”.

For the compound `CC[C@H](NC(=O)C1(NC(=O)[C@@H](N)CC(=O)O)CCCCC1)c1ccccc1` [Example 7, α-L-aspartyl-α-aminocyclohexanecarboxylic acid (S)-α-ethylbenzylamide], in series [1], the “Sweetness Potency” value amounted to 1000 and the sweetness potency value is on record as 1000 times that of sugar. Also, in series [2], the “stability (survival rate in an acidic aqueous solution) relative to comparative compound” value is reported as “about 9 times that of the comparative”.

Turning to `CCOC[C@H](NC(=O)[C@H](NC(=O)[C@@H](N)CC(=O)O)C(C)C)c1ccccc1` [Example 15, α-L-aspartyl-D-valine (R)-α-ethoxymethylbenzylamide], in series [1], the “Sweetness Potency” value is on record as 500 and the sweetness potency value is recorded as 500 times that of sugar.

For the compound `CCC(NC(=O)C(NC(=O)C(N)CC(=O)O)C(C)OC)c1ccccc1` [D-Thr(Me) (S) Et Ph], in series [1], the “Sweetness Potency” value is listed as 150.

Consider `CC[C@H](NC(=O)C1(NC(=O)[C@@H](N)CC(=O)O)CCCCC1)c1ccccc1` [α-L-aspartyl-α-aminocyclohexanecarboxylic acid (S)-α-ethylbe], for which the sweetness potency value result in series [1] is on record as “about 1000 times that of sugar”. The “stability (survival rate in an acidic aqueous solution) relative to comparative compound” value in series [2] is reported as “about 9 times that of the comparative compound”. For the same compound, the toxicity result in the series on ICR male mice is “no problematic toxicity”.

On to `CCC(NC(=O)C(NC(=O)C(N)CC(=O)O)C(C)CC)c1ccccc1` [D-allo-Ile (S) Et Ph], for which the “Sweetness Potency” value in series [1] worked out at 90.

Regarding `COC[C@H](NC(=O)[C@H](NC(=O)[C@@H](N)CC(=O)O)C(C)C)c1ccccc1` [Example 11, α-L-aspartyl-D-valine (R)-α-methoxymethylbenzylamide], in series [1], the “Sweetness Potency” value is 1300 and the sweetness potency value is recorded as 1300 times that of sugar.

For `CC[C@H](NC(=O)C(CC)(CC)NC(=O)[C@@H](N)CC(=O)O)c1ccccc1` [Example 9, α-L-aspartyl-α,α-diethylglycine (S)-α-ethylbenzylamide], in series [1], the “Sweetness Potency” value is reported as 200 and the sweetness potency value is recorded as 1000 times that of sugar.

Take `CC[C@@H](NC(=O)[C@@H](N)CC(=O)O)C(=O)N[C@@H](COC)c1ccccc1` [Example 16, α-L-aspartyl-D-α-aminobutyric acid (R)-α-methoxymethylbenzylamide]: in series [1], the “Sweetness Potency” value was 1200 and the sweetness potency value is given as 1200 times that of sugar.

As to `CC[C@H](NC(=O)C1(NC(=O)[C@@H](N)CC(=O)O)CCCC1)c1ccccc1` [α-L-aspartyl-α-aminocyclopentanecarboxylic acid (S)-α-ethylb], in series [1], the sweetness potency value result is listed as “about 1000 times that of sugar”. In addition, the “stability (survival rate in an acidic aqueous solution) relative to comparative compound” value in series [2] was “about 10 times that of the comparative compound”.

Consider `COC[C@H](NC(=O)[C@H](NC(=O)[C@@H](N)CC(=O)O)C(C)C)C(C)C` [Example 19, α-L-aspartyl-D-valine (R)-α-methoxymethyl-β-methylpropylamide], for which, in series [1], the “Sweetness Potency” value is recorded as 30 and the sweetness potency value was 30 times that of sugar.

In the case of `COC[C@H](NC(=O)C(NC(=O)[C@@H](N)CC(=O)O)c1ccco1)c1ccccc1` (mixture of isomers) [Example 5, α-L-aspartyl-DL-furylglycine (R)-α-methoxymethylbenzylamide], in series [1], the “Sweetness Potency” value is reported as 1200 and the sweetness potency value is given as 1200 times that of sugar.

For the compound `CC[C@@H](NC(=O)[C@@H](N)CC(=O)O)C(=O)N[C@@H](COC)c1ccccc1` [α-L-aspartyl-D-α-aminobutyric acid (R)-α-methoxymethylbenzyl], the sweetness potency value result in series [1] is recorded as “about 1200 times that of sugar”.

As to `CC[C@H](NC(=O)[C@H](NC(=O)[C@@H](N)CC(=O)O)[C@H](C)CC)c1ccccc1` [Example 3, α-L-aspartyl-D-isoleucine (S)-α-ethylbenzylamide], in series [1], the “Sweetness Potency” value amounted to 500 and the sweetness potency value was 500 times that of sugar.

In the case of `COC[C@H](NC(=O)[C@@H](C)NC(=O)[C@@H](N)CC(=O)O)c1ccccc1` [Example 18, α-L-aspartyl-D-alanine (R)-α-methoxymethylbenzylamide], in series [1], the “Sweetness Potency” value is 300 and the sweetness potency value was 300 times that of sugar.

For the compound `COC[C@H](NC(=O)C(NC(=O)[C@@H](N)CC(=O)O)c1ccco1)c1ccccc1` (mixture of isomers) [α-L-aspartyl-DL-furylglycine (R)-α-methoxymethylbenzylamide], in series [1], the sweetness potency value result is on record as “about 1200 times that of sugar”. In addition, the toxicity result with ICR male mice is recorded as “no problematic toxicity”.

`COC[C@@H](NC(=O)[C@H](NC(=O)[C@@H](N)CC(=O)O)C(C)C)c1ccccc1` [Example 20, α-L-aspartyl-D-valine (S)-α-methoxymethylbenzylamide]: in series [1], the “Sweetness Potency” value was < 20 and the sweetness potency value result is “not more than 20 times that of sugar”.

As to `COC[C@@H](NC(=O)[C@H](NC(=O)[C@@H](N)CC(=O)O)C(C)C)C(C)C` [Example 14, α-L-aspartyl-D-valine (S)-α-methoxymethyl-β-methylpropylamide], in series [1], the “Sweetness Potency” value came to 40 and the sweetness potency value is 40 times that of sugar.

Take `COC[C@H](NC(=O)C1(NC(=O)[C@@H](N)CC(=O)O)CCCCC1)c1ccccc1` [Example 13, α-L-aspartyl-α-aminocyclohexanecarboxylic acid (R)-α-methoxymethylbenzylamide]: in series [1], the “Sweetness Potency” value was 250 and the sweetness potency value is 250 times that of sugar.
